Assay results as given in PMC7905067, “Design and Immunological Evaluation of a Hybrid Peptide as a Potent TLR2 Agonist by Structure-Based Virtual Screening” (Frontiers in Cell and Developmental Biology, 2021).
Entries after “also recorded” stand apart in the source; their conditions may differ.

Key:
[1] = test system: CTX-immunosuppressed murine model; test: Body weight and immune organ indices in CTX-immunosuppressed mice; assay type: in vivo, BALB/c mice; conditions: CTX 80 mg/kg i.p. 3 days, peptide 10 mg/kg i.p. days 4-10, n = 12
Method: BALB/c mice (female, 6–8 weeks; Charles River, Beijing, China) used in this study were maintained in a specific-pathogen-free facility (55 ± 10% humidity and 22 ± 1°C) during the experiments. These experiments were conducted with approval from the Institutional Animal Care and Use Committee of China Agricultural University (certificate of the Beijing Laboratory Animal employee, ID: 18086).
(§1) After a 7-day adaptation period, the mice were randomly divided into five groups (n = 12 in each group): (1) control group: physiological saline was injected intraperitoneally once daily; (2) cyclophosphamide (CTX) group: CTX (80 mg/kg mouse weight; Sigma-Aldrich, St. Louis, MO, United States) was injected intraperitoneally once daily for the first 3 days. […] From days 4 to 10, peptide (10 mg/kg mouse weight) was injected intraperitoneally into mice once daily. Twenty-four hours after the last drug administration, all the mice were weighed and then euthanized, and their tissues and blood were collected for further study. The body weight index was calculated according to the formula:
Index(%)=finalbodyweight-initalbodyweight/initialbodyweight×100
The thymus and spleen indices were measured by the following formula:
Index(mg/g)=weightofthymusorspleen/bodyweight

TLR2, RAW264.7 cells [2] = test: TLR2 blocking experiment (anti-mouse TLR2 C9A12, then LTPa); assay type: cell-based; conditions: LTPa 10 μg/mL, 24 h; with or without TLR2 mAb (C9A12) 1 h before; ELISA
Method: For TLR2 blocking experiments, RAW264.7 cells were cultured in 24-well plates overnight at 37°C. The mouse IgG2a isotype control antibody or anti-mouse TLR2 (C9A12; InvivoGen, San Diego, CA, United States) was added to the cell cultures 1 h before being treated with LTPa for 24 h at 37°C. Then, the levels of TNF-α, IL-6, and IL-1β in the culture supernatant were analyzed.

TLR2 = test: Surface plasmon resonance, immobilized TLR2; assay type: binding; conditions: Biacore X100, CM5 chip, PBS containing 0.05% Tween 20; 0, 1.25, 2.5, 5, and 10 mM
Method: Surface plasmon resonance (SPR) experiments were carried out using a Biacore X100 instrument (GE Healthcare, Pittsburgh, PA, United States) by standard amine coupling. TLR2 (R&D Systems, Minneapolis, MN, United States) was amine-coupled to a Biacore CM5 sensor chip (Bio-Rad). The peptide was diluted to varying concentrations (0, 1.25, 2.5, 5, and 10 mM) in running buffer (PBS containing 0.05% Tween 20) and run sequentially over immobilized TLR2. Binding curves were processed for the initial injection alignment and baseline, and a reference-subtracted sensorgram was globally fitted to the curves to describe a homogeneous 1:1 model. Data analysis was conducted using ProteOn manager software (version 2.0). Data from the protein surfaces were grouped together to fit the association kinetic rate constant (Ka) and the dissociation rate constant (Kd). The equilibrium dissociation constant (KD) for the peptide-TLR2 interaction was calculated as follows: […]

TLR2, RAW264.7 cells [3] = test: Cell surface TLR2 cluster formation by confocal laser-scanning microscopy; assay type: cell-based, mouse; conditions: LTPa 10 μg/mL, 1 h, 37°C; clusters = fluorescence > 40 arbitrary units; three independent experiments
Method: RAW264.7 cells were treated with or without 10 μg/mL LTPa for 1 h at 37°C. The cells were then incubated (30 min, on ice) with anti-mouse monoclonal antibody TLR2 or isotype control (IgG) (eBioscience) before washing with PBS. Then, the cells were stained with a FITC–conjugated anti-mouse IgG antibody for 30 min on ice (Jackson Laboratories). After washing with PBS and fixing with paraformaldehyde, the cell nuclei were stained with DAPI (1:500 dilution in PBS) (Sigma-Aldrich). The cells were then imaged with the Leica TCS SP5 confocal system (Leica Microsystems Ltd.). LAS AF software was used to process the images and quantify the fluorescence. In addition, to generate a fluorescence histogram profile, a line was drawn along the cell surface. Fluorescence intensities higher than 40 arbitrary units (isotype control staining) were considered clusters of TLR2 molecules.

[4] = test system: serum TNF-α, IL-6, and IL-1β; test: Serum cytokines by ELISA in CTX-treated mice; assay type: in vivo, BALB/c mice; conditions: CTX 80 mg/kg i.p. 3 days, peptide 10 mg/kg i.p. days 4-10, three biological replicates
Method: as §1, with “formula: […]” for “formula:”
(§2) Serum was collected from blood and then assayed by ELISA kits according to the protocol supplied by the manufacturer (eBioscience, San Diego, United States) to determine the secretion of IgG, IgA, IgM, TNF-α, IL-6, and IL-1β.

serum IgA, IgG, and IgM = test: Serum immunoglobulins by ELISA in CTX-treated mice; assay type: in vivo, BALB/c mice; conditions: CTX 80 mg/kg i.p. 3 days, peptide 10 mg/kg i.p. days 4-10, three biological replicates
Method: as §1, with “formula: […]” for “formula:”
as §2

[5] = test system: MHC class II, mouse PBMCs; test: DC maturation: MHC-II expression by flow cytometry; assay type: in vivo, BALB/c mice; conditions: CTX 80 mg/kg i.p. 3 days; peptide 10 mg/kg i.p. days 4-10; three biological replicates
Method: as §1, with “formula: […]” for “formula:”
Mouse peripheral blood mononuclear cells (PBMCs) were obtained from the different groups of mice through Ficoll density gradient centrifugation. The cells were resuspended in PBS with 5% FBS and incubated with 10% (v/v) normal goat serum for 15 min at 4°C. The cells were combined with FITC-conjugated antibodies specific for MHC class II (MHC-II; BD Pharmingen, United States). The surface expression of MHC-II was determined by flow cytometry.

RAW264.7 cells = test: In vitro immunomodulatory activity: cytokine secretion by RAW264.7 cells (ELISA); assay type: cell-based, murine; conditions: 10 μg/mL, 12 h
Method: RAW264.7 cells were seeded at a density of 1.0 × 10^6 cell/mL and treated with (10 μg/mL) or without peptides in each well of a 6-well plate for 12 h at 37°C in a humidified incubator with 5% CO2. After treatment, TNF-α, IL-6 and IL-1β secretion in the cell supernatants was assessed using ELISA kits according to the manufacturer’s instructions.

[6] = test system: T lymphocyte subpopulations (CD4 +, CD8 +), mouse peripheral blood; test: Peripheral blood T lymphocyte subpopulations by flow cytometry; assay type: in vivo, BALB/c mice; conditions: CTX 80 mg/kg i.p. 3 days; peptide 10 mg/kg i.p. days 4-10; three biological replicates
Method: as §1, with “formula: […]” for “formula:”
Erythrocytes were aseptically obtained from the different groups of mouse peripheral blood and lysed with RBC lysis buffer. The remaining cells were washed with PBS and resuspended in PBS. The cells were combined with peridinin-chlorophyll-protein complex (PerCP)-conjugated anti-mouse CD3 +, allophycocyanin (APC)-conjugated anti-mouse CD4 +, and fluorescein isothiocyanate (FITC)-conjugated anti-mouse CD8 + (BD Pharmingen, United States) for 30 min at 4°C. The T lymphocyte subpopulations were analyzed by flow cytometry.

[7] = 37°C, ELISA, three independent experiments

IGKEFKRIVQRIKDFLRNLVPRTERKDVT [LTPa, hybrid peptide combining LL-37a and TP5]
spleen index [1]: significantly higher than those in the LL-37-treated and TP5-treated groups
thymus index [1]: significantly higher than those in the LL-37-treated and TP5-treated groups
bodyweight ([1]; CTX group vs control): improved bodyweight rapidly; also recorded: significantly higher than that in the parental peptide (LL-37 and TP5)-treated groups
TNF-α, IL-6, and IL-1β production (TLR2, RAW264.7 cells [2]): significantly caused increase levels of TNF-α, IL-6, and IL-1β
binding to TLR2 (SPR) (TLR2): could effectively bind to the TLR2
TLR2 clusters per micrometer on the cell surface (TLR2, RAW264.7 cells [3]): significantly increased the number of major TLR2 clusters per micrometer on the cell surface
serum IL-1β level [4]: higher than those in the TP5- or LL-37-treated groups; also recorded: efficiently reversed the declines
serum IL-6 level [4]: higher than those in the TP5- or LL-37-treated groups; also recorded: efficiently reversed the declines
serum TNF-α level [4]: higher than those in the TP5- or LL-37-treated groups; also recorded: efficiently reversed the declines
serum IgA level (serum IgA, IgG, and IgM): significantly higher total serum IgA, IgG, and IgM levels than mice in the TP5- or LL-37-treated groups
serum IgG level (serum IgA, IgG, and IgM): significantly higher total serum IgA, IgG, and IgM levels than mice in the TP5- or LL-37-treated groups
serum IgM level (serum IgA, IgG, and IgM): significantly higher total serum IgA, IgG, and IgM levels than mice in the TP5- or LL-37-treated groups
expression of MHC-II [5]: increased by LTPa treatment; also recorded: significantly higher than that in the LL-37-treated and TP5-treated groups
IL-1β secretion (RAW264.7 cells; [7]): remarkable increases
IL-6 secretion (RAW264.7 cells; [7]): remarkable increases
TNF-α secretion (RAW264.7 cells; [7]): remarkable increases
secretion of TNF-α, IL-6, and IL-1β (comparison between peptides) (RAW264.7 cells; vs the other peptides tested): significantly increased the secretion of TNF-α, IL-6, and IL-1β in comparison with the other peptides tested
proportions of CD4 + and CD8 + T lymphocytes [6]: significantly higher than that in the LL-37-treated group and similar to that in the TP5-treated group
